Reference: patent US6420131B1, “Use of fluorescein aryl ethers in high throughput cytochrome P450 inhibition assays” (Gentest Corporation, priority 1999, dated 2002)

How the values were obtained:
[1] = molecular target: T1, Rat CYP2C12 (Rattus norvegicus, UniProt P11510); assay: Turnover of fluorometric substrates by rat CYP2C12; conditions: substrate uM: Ia 2, AMMC 20, CEC 40, MFC 50, BFC 50, BQ 40, BzRes 50; 30 min; enzyme 50 nM
T1 sequence (P11510 1-490): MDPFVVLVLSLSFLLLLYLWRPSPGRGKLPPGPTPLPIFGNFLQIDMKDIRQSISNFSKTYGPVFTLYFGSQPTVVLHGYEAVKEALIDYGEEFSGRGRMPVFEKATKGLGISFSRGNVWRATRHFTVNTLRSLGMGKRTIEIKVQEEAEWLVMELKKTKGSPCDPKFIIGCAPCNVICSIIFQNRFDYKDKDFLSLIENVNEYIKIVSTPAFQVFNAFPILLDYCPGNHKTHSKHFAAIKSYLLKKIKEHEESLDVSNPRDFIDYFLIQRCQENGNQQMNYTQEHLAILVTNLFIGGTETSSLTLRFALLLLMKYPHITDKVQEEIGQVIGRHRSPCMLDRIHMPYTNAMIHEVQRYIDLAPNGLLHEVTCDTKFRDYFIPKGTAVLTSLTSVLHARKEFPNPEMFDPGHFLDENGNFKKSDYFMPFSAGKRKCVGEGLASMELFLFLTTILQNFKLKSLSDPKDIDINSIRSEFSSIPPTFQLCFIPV

[2] = molecular target: human CYP3A4 (Homo sapiens, UniProt P08684); assay: Enzyme kinetics of substrate turnover by cDNA-expressed CYP3A4; type: biochemical; design: purchased GENTEST Corporation P202; host or cells: baculovirus/insect cells (microsomes, SUPERSOMES); conditions: for Vmax: CYP3A4
Description: The evaluation of compounds of Formula I were performed by measuring the kinetics of turnover using cDNA-expressed cytochromes P450 CYP3A4 and CYP2C8. Vmax and Km values are important for the optimization of the assay conditions and for setting the parameters for inhibition experiments.
Example Compound Ia. […] Final incubation volume was 0.2 ml. […] The activity was quantitated by comparing to a standard curve of fluorescein. Apparent Km and Vmax values were calculated by non-linear regression using SigmaPlot software.

[3] = molecular target: Rat CYP2E1 (Rattus norvegicus, UniProt P05182); assay: Turnover of fluorometric substrates by rat CYP2E1; conditions: substrate uM: Ia 2, AMMC 20, CEC 40, MFC 50, BFC 50, BQ 40, BzRes 50; 30 min; enzyme 87 nM, lymphoblastoid microsomes
[4] = molecular target: T2, panel of Human P450 enzymes (Homo sapiens, UniProt P04798); assay: Substrate specificity, dealkylation of Compounds Ia and Ib by a panel of human P450 enzymes; type: biochemical; conditions: CYP1A1
T2 construct: purchased GENTEST Corporation; host or cells: baculovirus/insect cells (microsomes, SUPERSOMES)
T2 sequence (P04798 1-512): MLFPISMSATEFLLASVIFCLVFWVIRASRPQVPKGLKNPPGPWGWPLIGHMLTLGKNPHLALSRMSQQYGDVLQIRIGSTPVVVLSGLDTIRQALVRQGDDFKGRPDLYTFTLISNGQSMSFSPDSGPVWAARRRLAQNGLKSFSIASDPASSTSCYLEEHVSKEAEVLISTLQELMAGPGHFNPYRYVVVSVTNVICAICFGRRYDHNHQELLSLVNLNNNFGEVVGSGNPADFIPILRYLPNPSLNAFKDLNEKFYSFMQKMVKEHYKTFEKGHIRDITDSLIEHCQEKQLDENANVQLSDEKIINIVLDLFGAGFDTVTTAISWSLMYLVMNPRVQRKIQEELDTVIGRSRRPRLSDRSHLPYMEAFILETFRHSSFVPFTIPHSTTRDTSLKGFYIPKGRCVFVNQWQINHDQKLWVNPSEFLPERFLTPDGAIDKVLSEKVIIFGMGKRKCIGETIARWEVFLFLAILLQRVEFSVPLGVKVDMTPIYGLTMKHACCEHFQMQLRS
Description: (§1) The specificity of several cytochrome P450 enzymes for the dealkylation of Compound Ia (FIG. 1) and Compound Ib (FIG. 2) was examined.
(§2) Example Compounds Ia and Ib. […] Final incubation volume was 0.2 ml.

[5] = tested on: panel of Human P450 enzymes; assay: as above; type: biochemical; conditions: CYP2C9*1, CYP2C19, members of the CYP3A family
Description: as §1, §2

[6] = molecular target: T3, panel of Human P450 enzymes (Homo sapiens, UniProt P10632); assay: as above; type: biochemical; conditions: CYP2C8
T3 construct: purchased GENTEST Corporation; host or cells: baculovirus/insect cells (microsomes, SUPERSOMES)
T3 sequence (P10632 1-490): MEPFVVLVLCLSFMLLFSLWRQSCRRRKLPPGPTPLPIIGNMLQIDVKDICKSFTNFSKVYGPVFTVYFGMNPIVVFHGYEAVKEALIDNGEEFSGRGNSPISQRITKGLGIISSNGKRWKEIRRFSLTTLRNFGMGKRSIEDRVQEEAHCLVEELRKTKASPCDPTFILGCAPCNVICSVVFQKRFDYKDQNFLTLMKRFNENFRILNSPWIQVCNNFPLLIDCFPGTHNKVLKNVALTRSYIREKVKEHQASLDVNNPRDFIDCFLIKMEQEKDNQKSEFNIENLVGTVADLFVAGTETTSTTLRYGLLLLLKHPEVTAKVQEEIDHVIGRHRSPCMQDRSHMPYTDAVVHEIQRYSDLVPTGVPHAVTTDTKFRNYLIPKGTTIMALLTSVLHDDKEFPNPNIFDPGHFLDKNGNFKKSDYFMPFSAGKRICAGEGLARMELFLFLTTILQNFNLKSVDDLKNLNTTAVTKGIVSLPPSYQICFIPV
Description: as §1, §2

human CYP3A4, sequence (P08684 whole entry): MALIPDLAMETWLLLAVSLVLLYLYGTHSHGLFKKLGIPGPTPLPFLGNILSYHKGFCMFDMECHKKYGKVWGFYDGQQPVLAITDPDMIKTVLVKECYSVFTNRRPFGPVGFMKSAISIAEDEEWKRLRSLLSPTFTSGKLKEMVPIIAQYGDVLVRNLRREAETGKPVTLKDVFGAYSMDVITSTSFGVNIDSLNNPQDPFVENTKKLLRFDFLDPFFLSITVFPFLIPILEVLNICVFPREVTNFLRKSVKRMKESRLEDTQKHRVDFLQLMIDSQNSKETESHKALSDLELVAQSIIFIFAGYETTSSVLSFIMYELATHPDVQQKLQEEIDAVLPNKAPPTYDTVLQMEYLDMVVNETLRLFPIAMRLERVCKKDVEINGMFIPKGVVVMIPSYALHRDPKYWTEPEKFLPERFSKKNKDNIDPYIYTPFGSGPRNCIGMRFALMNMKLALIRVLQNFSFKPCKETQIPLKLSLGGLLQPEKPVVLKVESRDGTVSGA
Rat CYP2E1, sequence (P05182 whole entry): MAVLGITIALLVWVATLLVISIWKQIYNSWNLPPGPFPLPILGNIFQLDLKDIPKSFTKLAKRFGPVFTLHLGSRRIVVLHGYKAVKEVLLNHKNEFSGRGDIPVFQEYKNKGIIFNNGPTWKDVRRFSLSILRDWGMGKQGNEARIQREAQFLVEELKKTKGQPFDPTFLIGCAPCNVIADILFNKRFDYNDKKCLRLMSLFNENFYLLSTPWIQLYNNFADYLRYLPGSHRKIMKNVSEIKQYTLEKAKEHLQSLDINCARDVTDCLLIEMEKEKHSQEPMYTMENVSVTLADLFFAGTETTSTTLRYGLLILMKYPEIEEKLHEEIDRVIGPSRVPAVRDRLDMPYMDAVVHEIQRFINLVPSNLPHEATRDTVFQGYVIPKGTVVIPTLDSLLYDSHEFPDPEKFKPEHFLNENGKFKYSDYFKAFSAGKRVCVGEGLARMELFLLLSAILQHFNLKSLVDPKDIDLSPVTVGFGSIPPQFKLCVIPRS

Turnover Numbers, CYP2C12 [1] | Structure (SMILES) | Vmax [2] | Turnover Numbers, CYP2E1 [3] | other results
1.5 pmol product/min/pmol enzyme | c1ccc(COc2ccc3cccnc3c2)cc1 [BQ, 7-Benzyloxyquinoline] |  |  | 
 | O=c1ccc2nc3ccc(OCc4ccccc4)cc3oc-2c1 [BzRes, 7-benzyloxyresorufin] | 2.3 ± 0.2 |  | Km ([2]; CYP3A4, apparent Km): 30 ± 7 µM
 | CCOc1ccc2cc(C#N)c(=O)oc2c1 [CEC, 7-Ethoxy-3-cyanocoumarin] |  | 0.10 pmol product/min/pmol enzyme | 
 | O=C(OCc1ccccc1)c1ccccc1-c1c2ccc(=O)cc-2oc2cc(OCc3ccccc3)ccc12 [Compound Ia, O-Benzylfluorescein Benzyl Ester] | 22 ± 0.98 |  | dealkylation activity [4]: highest activity; dealkylation activity [5]: catalyzed the dealkylation; dealkylation activity [6]: substantial enzyme activity
0.24 pmol product/min/pmol enzyme | COc1ccc2c(C(F)(F)F)cc(=O)oc2c1 [MFC, 7-Methoxy-4-trifluoromethylcoumarin] |  | 2.11 pmol product/min/pmol enzyme | 
